Reference: patent publication EP2987533B1, “7-substituted piperazin-1-yl fluoroquinolone compounds, their use in the treatment of cancer, pharmaceutical compositions and a method for preparation” (priority 2014, dated 2016)

What was measured:
Assay in all cases: NCI one-dose SRB growth assay
Format in all cases: cell-based
786-0 = conditions: Homo sapiens; 786-0 (Renal Cancer), 10^-5 M, 48 h; read-out: % Growth Inhibition (GI %)
Method in brief: (§1)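 SRB colorimetry after 48 h incubation with a 10^-5M single dose; growth % relative to untreated.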

HT29 = conditions: Homo sapiens, HT-29; HT29 (Colon Cancer), 10^-5 M, 48 h; read-out: % Growth Inhibition (GI %)
Method in brief: as §1

DU-145 = conditions: Homo sapiens; DU-145 (Prostate Cancer), 10^-5 M, 48 h; read-out: % Growth Inhibition (GI %)
Method in brief: as §1

BT-549 = conditions: Homo sapiens; BT-549 (Breast Cancer), 10^-5 M, 48 h; read-out: % Growth Inhibition (GI %)
Method in brief: as §1

SF-539 = conditions: Homo sapiens; SF-539 (CNS Cancer), 10^-5 M, 48 h; read-out: % Growth Inhibition (GI %)
Method in brief: as §1

PC-3 = conditions: Homo sapiens; PC-3 (Prostate Cancer), 10^-5 M, 48 h; read-out: % Growth Inhibition (GI %)
Method in brief: as §1

U251 = conditions: Homo sapiens, U-251; U251 (CNS Cancer), 10^-5 M, 48 h; read-out: % Growth Inhibition (GI %)
Method in brief: as §1

CAKI-1 = conditions: Homo sapiens; CAKI-1 (Renal Cancer), 10^-5 M, 48 h; read-out: % Growth Inhibition (GI %)
Method in brief: as §1

SF-268 = conditions: Homo sapiens; SF-268 (CNS Cancer), 10^-5 M, 48 h; read-out: % Growth Inhibition (GI %)
OVCAR-3 = conditions: Homo sapiens; OVCAR-3 (Ovarian Cancer), 10^-5 M, 48 h; read-out: % Growth Inhibition (GI %)
Method in brief: as §1

MDA-MB-468 = conditions: Homo sapiens; MDA-MB-468 (Breast Cancer), 10^-5 M, 48 h; read-out: % Growth Inhibition (GI %)
Method in brief: as §1

OVCAR-5 = conditions: Homo sapiens; OVCAR-5 (Ovarian Cancer), 10^-5 M, 48 h; read-out: % Growth Inhibition (GI %)
Method in brief: as §1

SK-MEL-2 = conditions: Homo sapiens; SK-MEL-2 (Melanoma), 10^-5 M, 48 h; read-out: % Growth Inhibition (GI %)
SNB-19 = conditions: Homo sapiens; SNB-19 (CNS Cancer), 10^-5 M, 48 h; read-out: % Growth Inhibition (GI %)
Method in brief: as §1

OVCAR-4 = conditions: Homo sapiens; OVCAR-4 (Ovarian Cancer), 10^-5 M, 48 h; read-out: % Growth Inhibition (GI %)
Method in brief: as §1

HCC-2998 = conditions: Homo sapiens; HCC-2998 (Colon Cancer), 10^-5 M, 48 h; read-out: % Growth Inhibition (GI %)
Method in brief: as §1

HCT-15 = conditions: Homo sapiens; HCT-15 (Colon Cancer), 10^-5 M, 48 h; read-out: % Growth Inhibition (GI %)
Method in brief: as §1

SN12C = conditions: Homo sapiens; SN12C (Renal Cancer), 10^-5 M, 48 h; read-out: % Growth Inhibition (GI %)
Method in brief: as §1

T-47D = conditions: Homo sapiens, T47D; T-47D (Breast Cancer), 10^-5 M, 48 h; read-out: % Growth Inhibition (GI %)
Method in brief: as §1

SK-MEL-28 = conditions: Homo sapiens; SK-MEL-28 (Melanoma), 10^-5 M, 48 h; read-out: % Growth Inhibition (GI %)
Method in brief: as §1

LOX IMVI = conditions: Homo sapiens; LOX IMVI (Melanoma), 10^-5 M, 48 h; read-out: % Growth Inhibition (GI %)
Method in brief: as §1

NCI-H322M = conditions: Homo sapiens; NCI-H322M (Non-Small Cell Lung Cancer), 10^-5 M, 48 h; read-out: % Growth Inhibition (GI %)
MOLT-4 = conditions: Homo sapiens; MOLT-4 (Leukemia), 10^-5 M, 48 h; read-out: % Growth Inhibition (GI %)
Method in brief: as §1

UACC-62 = conditions: Homo sapiens; UACC-62 (Melanoma), 10^-5 M, 48 h; read-out: % Growth Inhibition (GI %)
Method in brief: as §1

NCI-H460 = conditions: Homo sapiens; NCI-H460 (Non-Small Cell Lung Cancer), 10^-5 M, 48 h; read-out: % Growth Inhibition (GI %)
MDA-MB-231/ATCC = conditions: Homo sapiens; MDA-MB- 231/ATCC (Breast Cancer), 10^-5 M, 48 h; read-out: % Growth Inhibition (GI %)
Method in brief: as §1

Row | Structure (SMILES) | inhibition at 10 µM (786-0) [%] | inhibition at 10 µM (HT29) [%] | inhibition at 10 µM (DU-145) [%] | inhibition at 10 µM (BT-549) [%] | inhibition at 10 µM (SF-539) [%] | inhibition at 10 µM (PC-3) [%] | inhibition at 10 µM (U251) [%] | inhibition at 10 µM (CAKI-1) [%] | inhibition at 10 µM (SF-268) [%] | inhibition at 10 µM (OVCAR-3) [%] | inhibition at 10 µM (OVCAR-5) [%] | inhibition at 10 µM (SK-MEL-2) [%] | inhibition at 10 µM (SNB-19) [%] | inhibition at 10 µM (OVCAR-4) [%] | inhibition at 10 µM (HCC-2998) [%] | inhibition at 10 µM (HCT-15) [%] | inhibition at 10 µM (SN12C) [%] | inhibition at 10 µM (T-47D) [%] | inhibition at 10 µM (LOX IMVI) [%] | inhibition at 10 µM (NCI-H322M) [%] | also measured
1 | CCn1cc(C(=O)O)c(=O)c2cc(F)c(N3CCN(S(=O)(=O)c4c(C)cc(C)cc4C)CC3)cc21 [Compound 6a] | < 10 | < 10 | < 10 | 26.3 | 20.1 | 38.9 | 16.6 | 10.7 | 16.3 | 10.8 | 11.4 | 11.3 | 10.1 | < 10 | 17.5 | 28.5 | 11.5 | 25.9 | 38.7 | 16.5 | inhibition at 10 µM (MDA-MB-468): 19.7%; inhibition at 10 µM (SK-MEL-28): < 10%; inhibition at 10 µM (MOLT-4): 24.1%; inhibition at 10 µM (UACC-62): 24.1%; inhibition at 10 µM (NCI-H460): 17.2%; inhibition at 10 µM (MDA-MB-231/ATCC): 16.3%
2 | CCn1cc(C(=O)O)c(=O)c2cc(F)c(N3CCN(S(=O)(=O)c4ccc(Cl)cc4)CC3)cc21 [Compound 1a] | 76.3 | 92.1 | 68.3 | 87.4 | 78.3 | 74.7 | 88 | 56.4 | 77.3 | 71.8 | 48.1 | 56.2 | 79.4 | 62.3 | 75.5 | 84.3 | 88.4 | 58.9 | 80.1 | 54.1 | inhibition at 10 µM (SK-MEL-28): 55.4%; inhibition at 10 µM (MOLT-4): 76.4%; inhibition at 10 µM (UACC-62): 78.5%; inhibition at 10 µM (NCI-H460): 94.1%; inhibition at 10 µM (MDA-MB-231/ATCC): 58.9%
3 | O=c1[nH]cc(F)c(=O)[nH]1 [Compound 5-FU, 5-fluorouracil, reference compound] | 48.7 | 27.1 | 35.5 | 37.8 | > 100 | 58.2 | 50.3 | 39.4 | 59 | 47.4 | 44.3 | 95.5 | 65.9 | 59.4 | > 100 | 26.5 | 54 | 56.7 | 30.4 | 59.5 | inhibition at 10 µM (MOLT-4): 43.1%; inhibition at 10 µM (UACC-62): 39.7%; inhibition at 10 µM (NCI-H460): 13%; inhibition at 10 µM (MDA-MB-231/ATCC): 78.1%
4 | O=C(O)c1cn(C2CC2)c2cc(N3CCN(S(=O)(=O)c4ccc(Cl)c(Cl)c4)CC3)c(F)cc2c1=O [Compound 3b] | 72.2 | 99.7 | 82.8 | > 100 | 88.6 | 83.8 | 87.6 | 96.9 | 80.4 | 90.1 | 87.5 | > 100 | 75.3 | 79.2 | 75.2 | 93.8 | 89.6 | 83.7 | 98.8 | 78.7 | inhibition at 10 µM (MDA-MB-468): > 100%; inhibition at 10 µM (SK-MEL-28): 51.5%; inhibition at 10 µM (MOLT-4): 96.6%; inhibition at 10 µM (UACC-62): 70.4%; inhibition at 10 µM (NCI-H460): 94.2%; inhibition at 10 µM (MDA-MB-231/ATCC): 63.4%
5 | CCn1cc(C(=O)O)c(=O)c2cc(F)c(N3CCN(S(=O)(=O)c4cccc5ccccc45)CC3)cc21 [Compound 7a] | 75.7 | 96 | 81.1 | > 100 | 82.6 | 92.2 | 85.8 | 99.1 | 83.6 | > 100 | 84.5 | 91.2 | 71.2 | 76.2 | 68.4 | 88.9 | 88.1 | 94.7 | > 100 | > 100 | inhibition at 10 µM (MDA-MB-468): 95.2%; inhibition at 10 µM (SK-MEL-28): 40.8%; inhibition at 10 µM (MOLT-4): 91.6%; inhibition at 10 µM (UACC-62): 68.8%; inhibition at 10 µM (NCI-H460): 92%; inhibition at 10 µM (MDA-MB-231/ATCC): 76.1%
